# In PubChem BioAssay (NCI):
#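 96-well plates; 48 h exposure; 5 concentrations. Endpoints by linear interpolation between flanking doses. Not reached: highest tested concentration assigned. TGI marks complete inhibition of growth.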
# Columns and labels:
# Assay in all cases: inhibition of tumour cell growth, NCI panel, 48 h
# 786-0 renal = tested on: 786-0 renal
# A498 renal = tested on: A498 renal
# A549 NSCLC = tested on: A549 NSCLC
# ACHN renal = tested on: ACHN renal
# BT-549 breast = tested on: BT-549 breast
# CAKI-1 renal = tested on: CAKI-1 renal
# CCRF-CEM leukemia = tested on: CCRF-CEM leukemia
# COLO 205 colon = tested on: COLO 205 colon
# DU-145 prostate = tested on: DU-145 prostate
# EKVX NSCLC = tested on: EKVX NSCLC
# HCC-2998 colon = tested on: HCC-2998 colon
# HCT-116 colon = tested on: HCT-116 colon
# HCT-15 colon = tested on: HCT-15 colon
# HL-60(TB) leukemia = tested on: HL-60(TB) leukemia
# HOP-62 NSCLC = tested on: HOP-62 NSCLC
# HS 578T breast = tested on: HS 578T breast
# HT29 colon = tested on: HT29 colon
# IGROV1 ovarian = tested on: IGROV1 ovarian
# K-562 leukemia = tested on: K-562 leukemia
# KM12 colon = tested on: KM12 colon
# LOX IMVI melanoma = tested on: LOX IMVI melanoma
# M14 melanoma = tested on: M14 melanoma
# MALME-3M melanoma = tested on: MALME-3M melanoma
# MCF7 breast = tested on: MCF7 breast
# MDA-MB-231 breast = tested on: MDA-MB-231 breast
# MDA-MB-435 = tested on: MDA-MB-435
# MDA-N = tested on: MDA-N
# MOLT-4 leukemia = tested on: MOLT-4 leukemia
# NCI-H226 lung = tested on: NCI-H226 lung
# NCI-H23 lung = tested on: NCI-H23 lung
# NCI-H460 lung = tested on: NCI-H460 lung
# NCI-H522 lung = tested on: NCI-H522 lung
# NCI/ADR-RES ovarian = tested on: NCI/ADR-RES ovarian
# OVCAR-3 ovarian = tested on: OVCAR-3 ovarian
# OVCAR-5 ovarian = tested on: OVCAR-5 ovarian
# OVCAR-8 ovarian = tested on: OVCAR-8 ovarian
# PC-3 prostate = tested on: PC-3 prostate
# RXF 393 renal = tested on: RXF 393 renal
# SF-268 CNS = tested on: SF-268 CNS
# SF-295 CNS = tested on: SF-295 CNS
# SF-539 CNS = tested on: SF-539 CNS
# SK-MEL-2 melanoma = tested on: SK-MEL-2 melanoma
# SK-MEL-28 melanoma = tested on: SK-MEL-28 melanoma
# SK-MEL-5 melanoma = tested on: SK-MEL-5 melanoma
# SK-OV-3 ovarian = tested on: SK-OV-3 ovarian
# SN12C renal = tested on: SN12C renal
# SNB-19 CNS = tested on: SNB-19 CNS
# SNB-75 CNS = tested on: SNB-75 CNS
# SR leukemia = tested on: SR leukemia
# SW-620 colon = tested on: SW-620 colon
# T-47D breast = tested on: T-47D breast
# TK-10 renal = tested on: TK-10 renal
# U251 CNS = tested on: U251 CNS
# UACC-257 melanoma = tested on: UACC-257 melanoma
# UACC-62 melanoma = tested on: UACC-62 melanoma
# UO-31 renal = tested on: UO-31 renal
# HOP-92 NSCLC = tested on: HOP-92 NSCLC
# OVCAR-4 ovarian = tested on: OVCAR-4 ovarian
# RPMI-8226 leukemia = tested on: RPMI-8226 leukemia
structure (smiles),measurement,setting,value
Cc1cn(C2CC(N=[N+]=[N-])C(COP(=O)(O)OCC3OC(n4cc(F)c(=O)[nH]c4=O)CC3O)O2)c(=O)[nH]c1=O (stereo not drawn),TGI,786-0 renal,> 100 µM
same,TGI,A498 renal,> 100 µM
same,TGI,A549 NSCLC,> 100 µM
same,TGI,ACHN renal,> 100 µM
same,TGI,BT-549 breast,> 100 µM
same,TGI,CAKI-1 renal,> 100 µM
same,TGI,CCRF-CEM leukemia,> 100 µM
same,TGI,COLO 205 colon,> 100 µM
same,TGI,DU-145 prostate,> 100 µM
same,TGI,EKVX NSCLC,22.7 µM
same,TGI,HCC-2998 colon,> 100 µM
same,TGI,HCT-116 colon,> 100 µM
same,TGI,HCT-15 colon,> 100 µM
same,TGI,HL-60(TB) leukemia,> 100 µM
same,TGI,HOP-62 NSCLC,> 100 µM
same,TGI,HS 578T breast,> 100 µM
same,TGI,HT29 colon,> 100 µM
same,TGI,IGROV1 ovarian,9.57 µM
same,TGI,K-562 leukemia,> 65.7 µM
same,TGI,KM12 colon,> 45.5 µM
same,TGI,LOX IMVI melanoma,> 100 µM
same,TGI,M14 melanoma,> 100 µM
same,TGI,MALME-3M melanoma,> 20.2 µM
same,TGI,MCF7 breast,> 100 µM
same,TGI,MDA-MB-231 breast,> 100 µM
same,TGI,MDA-MB-435,> 100 µM
same,TGI,MDA-N,> 100 µM
same,TGI,MOLT-4 leukemia,> 37.2 µM
same,TGI,NCI-H226 lung,> 100 µM
same,TGI,NCI-H23 lung,> 79.7 µM
same,TGI,NCI-H460 lung,> 100 µM
same,TGI,NCI-H522 lung,> 100 µM
same,TGI,NCI/ADR-RES ovarian,> 24.6 µM
same,TGI,OVCAR-3 ovarian,> 100 µM
same,TGI,OVCAR-5 ovarian,> 100 µM
same,TGI,OVCAR-8 ovarian,> 100 µM
same,TGI,PC-3 prostate,> 100 µM
same,TGI,RXF 393 renal,> 100 µM
same,TGI,SF-268 CNS,> 100 µM
same,TGI,SF-295 CNS,> 100 µM
same,TGI,SF-539 CNS,> 44 µM
same,TGI,SK-MEL-2 melanoma,> 100 µM
same,TGI,SK-MEL-28 melanoma,> 100 µM
same,TGI,SK-MEL-5 melanoma,> 100 µM
same,TGI,SK-OV-3 ovarian,> 100 µM
same,TGI,SN12C renal,> 100 µM
same,TGI,SNB-19 CNS,> 31.6 µM
same,TGI,SNB-75 CNS,21.6 µM
same,TGI,SR leukemia,> 100 µM
same,TGI,SW-620 colon,> 100 µM
same,TGI,T-47D breast,> 100 µM
same,TGI,TK-10 renal,> 100 µM
same,TGI,U251 CNS,> 100 µM
same,TGI,UACC-257 melanoma,> 100 µM
same,TGI,UACC-62 melanoma,> 100 µM
same,TGI,UO-31 renal,> 100 µM
Cn1c(=O)c2c(nc(N/N=C/c3ccccc3C(=O)O)n2C)n(C)c1=O,TGI,786-0 renal,> 100 µM
same,TGI,A498 renal,> 100 µM
same,TGI,A549 NSCLC,> 100 µM
same,TGI,ACHN renal,> 100 µM
same,TGI,BT-549 breast,> 100 µM
same,TGI,CAKI-1 renal,> 100 µM
same,TGI,CCRF-CEM leukemia,> 100 µM
same,TGI,COLO 205 colon,> 100 µM
same,TGI,DU-145 prostate,> 100 µM
same,TGI,EKVX NSCLC,> 100 µM
same,TGI,HCT-116 colon,> 100 µM
same,TGI,HCT-15 colon,> 100 µM
same,TGI,HL-60(TB) leukemia,> 100 µM
same,TGI,HOP-62 NSCLC,> 100 µM
same,TGI,HOP-92 NSCLC,> 100 µM
same,TGI,HS 578T breast,> 100 µM
same,TGI,HT29 colon,> 100 µM
same,TGI,IGROV1 ovarian,> 100 µM
same,TGI,K-562 leukemia,> 100 µM
same,TGI,KM12 colon,> 100 µM
same,TGI,LOX IMVI melanoma,> 100 µM
same,TGI,M14 melanoma,> 100 µM
same,TGI,MALME-3M melanoma,> 100 µM
same,TGI,MCF7 breast,> 100 µM
same,TGI,MDA-MB-231 breast,> 100 µM
same,TGI,MDA-MB-435,> 100 µM
same,TGI,MDA-N,> 100 µM
same,TGI,MOLT-4 leukemia,> 100 µM
same,TGI,NCI-H226 lung,> 100 µM
same,TGI,NCI-H23 lung,> 100 µM
same,TGI,NCI-H460 lung,> 100 µM
same,TGI,NCI-H522 lung,> 100 µM
same,TGI,NCI/ADR-RES ovarian,> 100 µM
same,TGI,OVCAR-3 ovarian,> 100 µM
same,TGI,OVCAR-4 ovarian,> 100 µM
same,TGI,OVCAR-5 ovarian,> 100 µM
same,TGI,OVCAR-8 ovarian,> 100 µM
same,TGI,PC-3 prostate,> 100 µM
same,TGI,RPMI-8226 leukemia,> 100 µM
same,TGI,RXF 393 renal,> 100 µM
same,TGI,SF-268 CNS,> 100 µM
same,TGI,SF-295 CNS,> 100 µM
same,TGI,SF-539 CNS,> 100 µM
same,TGI,SK-MEL-2 melanoma,> 100 µM
same,TGI,SK-MEL-28 melanoma,> 100 µM
same,TGI,SK-MEL-5 melanoma,> 100 µM
same,TGI,SK-OV-3 ovarian,> 100 µM
same,TGI,SN12C renal,> 100 µM
same,TGI,SNB-19 CNS,> 100 µM
same,TGI,SNB-75 CNS,> 100 µM
same,TGI,SR leukemia,> 100 µM
same,TGI,SW-620 colon,> 100 µM
same,TGI,T-47D breast,> 100 µM
same,TGI,TK-10 renal,> 100 µM
same,TGI,U251 CNS,> 100 µM
same,TGI,UACC-257 melanoma,> 100 µM
same,TGI,UACC-62 melanoma,> 100 µM
same,TGI,UO-31 renal,> 100 µM
Cc1nn(C(=O)c2ccncc2)c2c1C(c1ccccc1[N+](=O)[O-])SC(N)=N2 (stereo not drawn),TGI,786-0 renal,> 10 µM
same,TGI,A549 NSCLC,> 10 µM
same,TGI,ACHN renal,> 10 µM
same,TGI,BT-549 breast,> 10 µM
same,TGI,CAKI-1 renal,> 10 µM
same,TGI,CCRF-CEM leukemia,> 10 µM
same,TGI,COLO 205 colon,> 10 µM
same,TGI,DU-145 prostate,> 10 µM
same,TGI,EKVX NSCLC,> 10 µM
same,TGI,HCC-2998 colon,> 10 µM
same,TGI,HCT-116 colon,> 10 µM
same,TGI,HCT-15 colon,> 10 µM
same,TGI,HL-60(TB) leukemia,> 10 µM
same,TGI,HOP-62 NSCLC,> 10 µM
same,TGI,HOP-92 NSCLC,> 10 µM
same,TGI,HS 578T breast,> 10 µM
same,TGI,HT29 colon,> 10 µM
same,TGI,IGROV1 ovarian,> 10 µM
same,TGI,K-562 leukemia,> 10 µM
same,TGI,KM12 colon,> 10 µM
same,TGI,LOX IMVI melanoma,> 10 µM
same,TGI,M14 melanoma,> 10 µM
same,TGI,MALME-3M melanoma,> 10 µM
same,TGI,MCF7 breast,> 10 µM
same,TGI,MDA-MB-231 breast,> 10 µM
same,TGI,MDA-MB-435,> 10 µM
same,TGI,MDA-N,> 10 µM
same,TGI,MOLT-4 leukemia,> 10 µM
same,TGI,NCI-H226 lung,> 10 µM
same,TGI,NCI-H23 lung,> 10 µM
same,TGI,NCI-H460 lung,> 10 µM
same,TGI,NCI/ADR-RES ovarian,> 10 µM
same,TGI,OVCAR-3 ovarian,> 10 µM
same,TGI,OVCAR-4 ovarian,> 10 µM
same,TGI,OVCAR-5 ovarian,> 10 µM
same,TGI,OVCAR-8 ovarian,> 10 µM
same,TGI,PC-3 prostate,> 10 µM
same,TGI,RPMI-8226 leukemia,> 10 µM
same,TGI,RXF 393 renal,> 10 µM
same,TGI,SF-268 CNS,> 10 µM
same,TGI,SF-295 CNS,> 10 µM
same,TGI,SF-539 CNS,> 10 µM
same,TGI,SK-MEL-2 melanoma,> 10 µM
same,TGI,SK-MEL-28 melanoma,> 10 µM
same,TGI,SK-MEL-5 melanoma,> 10 µM
same,TGI,SN12C renal,> 10 µM
same,TGI,SNB-19 CNS,> 10 µM
same,TGI,SNB-75 CNS,> 10 µM
same,TGI,SR leukemia,> 10 µM
same,TGI,SW-620 colon,> 10 µM
same,TGI,T-47D breast,> 10 µM
same,TGI,TK-10 renal,> 10 µM
same,TGI,UACC-257 melanoma,> 10 µM
same,TGI,UACC-62 melanoma,> 10 µM
